Laboratory results published in patent US5488060A, “Substituted thiadiazoles, compositions containing them and their use as antimicrobial and marine antifouling agents” (The Dow Chemical Company, priority 1994, dated 1996).
Values after ≈ are worked out from the molar mass of the structure shown. Like-named read-outs stand apart in the source and are kept apart here.

How the values were obtained:
[1] = test system: Staphylococcus aureus (Sa); assay: Minimum inhibitory concentration (MIC) in nutrient agar, Staphylococcus aureus; assay type: cell-based
How it was run: (§1)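 Agar dilution in nutrient agar at pH 6.8 and pH 8.2 (tricine-buffered), compound at 0–500 ppm from a 1% acetone/water solution. Replicator inoculation from 10^8 CFU/mL suspensions; plates incubated 48 h at 30° C. MIC is the lowest concentration preventing growth.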

Fusarium oxysporum (Fo) = assay: Minimum inhibitory concentration (MIC) in malt yeast agar, Fusarium oxysporum; assay type: cell-based
How it was run: (§2)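 Compound (1% acetone/water solution) incorporated into pH 5.5 malt yeast agar at 0–500 ppm; plates inoculated by replicator with 1:9-diluted saline suspensions of 7-day fungal cultures. Incubated at 30° C and read at 72 hours; MIC is the lowest concentration inhibiting growth.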

Bacillus subtilis (Bs) = assay: Minimum inhibitory concentration (MIC) in nutrient agar, Bacillus subtilis; assay type: cell-based
How it was run: as §1

[2] = test system: Aureobasidium pullulan (Ap); assay: Minimum inhibitory concentration (MIC) in malt yeast agar, Aureobasidium pullulan; assay type: cell-based
How it was run: as §2

marine organisms = assay: Marine antifouling rating of coated test panels exposed to the marine environment; conditions: scale 10 (completely free of growth) to 0 (completely covered); for Marine Antifouling Rating, 6 Week Test, Top Panel / Marine Antifouling Rating, 6 Week Test, Bottom Panel: 6 weeks; for Marine Antifouling Rating, 6 Week Test, Top Panel / Marine Antifouling Rating, 10 Week Test, Top Panel: topside; for Marine Antifouling Rating, 6 Week Test, Bottom Panel / Marine Antifouling Rating, 10 Week Test, Bottom Panel: underside; for Marine Antifouling Rating, 10 Week Test, Top Panel / Marine Antifouling Rating, 10 Week Test, Bottom Panel: 10 weeks
Procedure: Test panels are prepared from clear, rigid polyvinyl chloride film that is 0.381×10-3 m thick and has one textured surface. The test panels are 0.1524 m by 0.1524 m squares that have 0.00635 m holes punched at corners on 0.127 m centers. A 0.102 square template, with a 0.067 m diameter hole at the center, is attached to the center of the textured surface of the test panels.
A candidate marine antifoulant compound (1.0 g) is stirred into a resinous latex binder (9.0 g). A portion of the compound/binder mixture (1.5 g) is added to the center of the test panel and uniformly spread over the circular area inside the template.
Water is added dropwise as needed to properly spread the compound/binder mixture. The template prevents the compound/binder mixture from spreading beyond the uncovered area. […] The template is then removed. The test panel is then allowed to dry for 8 to 12 hours at room temperature.
Two test panels are prepared for each candidate marine antifoulant compound. Two control test panels are also prepared by only treating with the resinous latex binder. One test panel of each candidate marine […] compound is attached over a white background to the topside of an exposure support apparatus. The second test panel is attached over a black background to the underside of the exposure support apparatus. The exposure support apparatus is placed horizontally 0.0254 m under a marine surface with the white background topside facing up.
After being removed from the exposure support apparatus, each test panel is inspected and rated for marine organism growth on both the treated and untreated areas of the test panel, The marine organisms present on the treated and untreated areas are noted. The presence of algae spores and bacterial slime are noted but not included in rating each test panel. The test panels are rated on a scale from 10 (representing completely free of marine organism growth) to 0 (representing completely covered with marine organism growth).
In addition, test panels were prepared using tributyl tin oxide, a known marine antifouling compound.

Trichoderma viride (Tv) = assay: Minimum inhibitory concentration (MIC) in malt yeast agar, Trichoderma viride; assay type: cell-based
How it was run: as §2

Escherichia coli (Ec) = assay: Minimum inhibitory concentration (MIC) in nutrient agar, Escherichia coli; assay type: cell-based
How it was run: as §1

[3] = test system: Pseudomonas aeruginosa (PRD-10); assay: Minimum inhibitory concentration (MIC) in nutrient agar, Pseudomonas aeruginosa PRD-10; assay type: cell-based
How it was run: as §1

[4] = test system: Klebsiella pneumoniae (Kp); assay: Minimum inhibitory concentration (MIC) in nutrient agar, Klebsiella pneumoniae; assay type: cell-based
How it was run: as §1

[5] = test system: Pseudomonas aeruginosa (Pa); assay: Minimum inhibitory concentration (MIC) in nutrient agar, Pseudomonas aeruginosa; assay type: cell-based; conditions: 30° C., 48 hours, read-out: Minimum Inhibitory Concentration, Pa
How it was run: as §1

[6] = pH 6.8, nutrient agar, 30° C., 48 hours, read-out: Minimum Inhibitory Concentration, Sa
[7] = 48 h, pH 8.2, read-out: Minimum Inhibitory Concentration, Bs
[8] = pH 6.8, nutrient agar, 30° C., 48 hours, read-out: Minimum Inhibitory Concentration, Bs
[9] = 48 h, pH 8.2, read-out: Minimum Inhibitory Concentration, PRD
[10] = pH 6.8, nutrient agar, 30° C., 48 hours, read-out: Minimum Inhibitory Concentration, Kp

Row | Structure (SMILES) | MIC [1, 6] [µg/mL] | MIC (Bacillus subtilis (Bs); [7]) [µg/mL] | MIC (Bacillus subtilis (Bs); [8]) [µg/mL] | Marine Antifouling Rating, 6 Week Test, Top Panel (marine organisms) | Marine Antifouling Rating, 6 Week Test, Bottom Panel (marine organisms) | Marine Antifouling Rating, 10 Week Test, Top Panel (marine organisms) | Marine Antifouling Rating, 10 Week Test, Bottom Panel (marine organisms) | MIC [3, 9] [µg/mL] | MIC [4, 10] [µg/mL] | MIC ([5]; pH 8.2, nutrient agar) [µg/mL] | further results
1 | N#CSc1nsnc1-c1ccccc1 [Example I, 4-Phenyl-3-thiocyanato-1,2,5-thiadiazole] | 25 (≈ 114 µM) | 250 (≈ 1140 µM) | < 10 | 7 | 7 | 4 | 3 | > 500 | 25 (≈ 114 µM) | > 500 | MIC ([1]; 48 h, pH 8.2, read-out: Minimum Inhibitory Concentration, Sa): 500 µg/mL (≈ 2280 µM); MIC (Fusarium oxysporum (Fo); pH 5.5, malt yeast agar, 30° C., 72 hours for fungi, read-out: Minimum Inhibitory Concentration, Fo): 2.5 µg/mL (≈ 11.4 µM); MIC ([2]; pH 5.5, malt yeast agar, 30° C., read-out: Minimum Inhibitory Concentration, Ap): < 1 µg/mL; MIC (Trichoderma viride (Tv); pH 5.5, malt yeast agar, 30° C., 72 hours for fungi, read-out: Minimum Inhibitory Concentration, Tv): 2.5 µg/mL (≈ 11.4 µM); MIC (Escherichia coli (Ec); 48 h, pH 6.8, read-out: Minimum Inhibitory Concentration, Ec): 50 µg/mL (≈ 228 µM); MIC (Escherichia coli (Ec); 48 h, pH 8.2, read-out: Minimum Inhibitory Concentration, Ec): > 500 µg/mL; MIC ([3]; 48 h, pH 6.8, read-out: Minimum Inhibitory Concentration, PRD): > 500 µg/mL; MIC ([4]; 48 h, pH 8.2, read-out: Minimum Inhibitory Concentration, Kp): 500 µg/mL (≈ 2280 µM); MIC ([5]; pH 6.8, nutrient agar): > 500 µg/mL
2 | N#CSCSc1nsnc1-c1ccccc1 [Example XVI, 4-Phenyl-3-thiocyanato-methylthio-1,2,5-thiadiazole] | 25 (≈ 94.2 µM) | 250 (≈ 942 µM) | < 10 | 9 | 9 | 4 | 9 | 50 (≈ 188 µM) | 25 (≈ 94.2 µM) | 250 (≈ 942 µM) | MIC ([1]; pH 8.2, nutrient agar, 30° C., 48 hours, read-out: Minimum Inhibitory Concentration, Sa): 50 µg/mL (≈ 188 µM); MIC (Fusarium oxysporum (Fo); 72 h, pH 5.5, read-out: Minimum Inhibitory Concentration, Fo): 5 µg/mL (≈ 18.8 µM); MIC ([2]; pH 5.5, read-out: Minimum Inhibitory Concentration, Ap): 2.5 µg/mL (≈ 9.42 µM); MIC (Trichoderma viride (Tv); 72 h, pH 5.5, read-out: Minimum Inhibitory Concentration, Tv): 10 µg/mL (≈ 37.7 µM); MIC (Escherichia coli (Ec); pH 6.8, nutrient agar, 30° C., 48 hours, read-out: Minimum Inhibitory Concentration, Ec): 25 µg/mL (≈ 94.2 µM); MIC (Escherichia coli (Ec); pH 8.2, nutrient agar, 30° C., 48 hours, read-out: Minimum Inhibitory Concentration, Ec): 250 µg/mL (≈ 942 µM); MIC ([3]; pH 6.8, nutrient agar, 30° C., 48 hours, read-out: Minimum Inhibitory Concentration, PRD): 25 µg/mL (≈ 94.2 µM); MIC ([4]; pH 8.2, nutrient agar, 30° C., 48 hours, read-out: Minimum Inhibitory Concentration, Kp): 100 µg/mL (≈ 377 µM)
